Assay results published in US11453703B2, “Heterotandem bicyclic peptide complexes” (BicycleTX Limited, priority 2018, dated 2022).
pEC50: −log10 of the molar value.

Target: CD137 (Homo sapiens, UniProt Q07011)
Experiment: CD137 reporter assay, co-culture with PD-L1 expressing cell line RKO
Assay type: cell-based
Design: host or cells: Jurkat reporter cells
Details: tumour target PD-L1, co-culture with RKO, 6 h; for fold induction: read-out: Fold Induction over Background
Procedure: Culture medium referred to as R1 media is prepared by adding 1% FBS to RPMI-1640 (component of Promega kit CS196005). Serial dilutions of test articles in R1 are prepared in a sterile 96 well-plate. Use 25 μl per well of test articles or R1 (as a background control) to designated wells in white cell culture plate. Tumour cells* are harvested and resuspended at a concentration of 400,000 cells/mL in R1 media. Twenty five (25) μL/well tumour cells are used in white cell culture plate. Jurkat cells (Promega kit CS196005, 0.5 mL) are thawed in the water bath and then added to 5 ml pre-warmed R1 medium. Twenty five (25) μL/well Jurkat cells are used in white cell culture plate. Incubate the cells and test articles for 6h at 37° C., 5% CO2. At the end of 6 h, add 75 μl/well Bio-Glo™ (Promega) and incubate for 10 min before reading luminescence in a plate reader (Clariostar, BMG). The fold change relative to cells (Jurkat cells+Cell line used in co-culture) is calculated and plotted in GraphPad Prism as log(agonist) vs response to determine EC50 (nM) and Fold Induction over background (Max)

Chain of CD137 (Q07011 24-255): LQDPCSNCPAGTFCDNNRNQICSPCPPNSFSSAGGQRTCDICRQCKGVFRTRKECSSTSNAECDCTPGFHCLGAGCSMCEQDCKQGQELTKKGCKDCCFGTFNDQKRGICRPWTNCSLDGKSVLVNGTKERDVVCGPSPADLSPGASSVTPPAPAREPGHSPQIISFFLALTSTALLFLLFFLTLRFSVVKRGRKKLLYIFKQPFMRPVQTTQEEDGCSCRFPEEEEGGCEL

| Compound | Fold Induction over Background | fold induction | pEC50 |
| --- | --- | --- | --- |
| CCCC[C@@H]1NC(=O)[C@H](Cc2ccc(O)cc2)NC(=O)[C@@H]2CCCN2C(=O)[C@H](CC(=O)O)NC(=O)[C@H](C)NC(=O)[C@H](Cc2ccccc2)NC(=O)[C@@H]2CSCCC(=O)N3CN(CN(C3)C(=O)CCSC[C@@H](C(=O)N[C@@H](C)C(N)=O)NC1=O)C(=O)CCSC[C@H](NC(C)=O)C(=O)N[C@@H](CC(C)(C)C)C(=O)N1CCC[C@H]1C(=O)N[C@@H](CCCCNC(=O)CCOCCOCCOCCOCCOCCOCCOCCOCCOCCOCCOCCOCCn1cc(CCC(=O)NCCCC[C@@H]3NC(=O)[C@H](CCC(N)=O)NC(=O)[C@@H]4CSCCC(=O)N5CN(CN(C5)C(=O)CCSC[C@@H](C(=O)N5CCC[C@H]5C(=O)N[C@@H](CO)C(=O)N[C@@H](Cc5c[nH]cn5)C(N)=O)NC(=O)[C@H](CC(C)C)NC(=O)[C@H](Cc5c[nH]cn5)NC(=O)[C@H](CC(C)C)NC3=O)C(=O)CCSC[C@H](NC(=O)[C@H](CCCCN)NC(=O)[C@H](CC(=O)O)NC(=O)[C@H](CO)NC(C)=O)C(=O)N[C@@H](CO)C(=O)N[C@@H](C)C(=O)NCC(=O)N[C@@H](Cc3c[nH]c5ccccc35)C(=O)N[C@@H](CC(C)C)C(=O)N[C@@H]([C@@H](C)O)C(=O)N[C@@H](CCSC)C(=O)N4)nn1)C(=O)N[C@H](C)C(=O)N1CCC[C@H]1C(=O)N[C@@H](Cc1ccc(O)cc1)C(=O)N2 [BCY11017] | 4 fold |  |  |
| CCCC[C@@H]1NC(=O)[C@H](Cc2ccc(O)cc2)NC(=O)[C@@H]2CCCN2C(=O)[C@H](CC(=O)O)NC(=O)[C@H](C)NC(=O)[C@H](Cc2ccccc2)NC(=O)[C@@H]2CSCCC(=O)N3CN(CN(C3)C(=O)CCSC[C@@H](C(=O)N[C@@H](C)C(N)=O)NC1=O)C(=O)CCSC[C@H](NC(C)=O)C(=O)N[C@@H](CC(C)(C)C)C(=O)N1CCC[C@H]1C(=O)N[C@@H](CCC(=O)O)C(=O)N[C@H](CCCCNC(=O)CCOCCOCCOCCOCCOCCOCCOCCOCCOCCOCCOCCOCCn1cc(CCC(=O)NCCCC[C@@H]3NC(=O)[C@H](CCC(N)=O)NC(=O)[C@@H]4CSCCC(=O)N5CN(CN(C5)C(=O)CCSC[C@@H](C(=O)N5CCC[C@H]5C(=O)N[C@@H](CO)C(=O)N[C@@H](Cc5c[nH]cn5)C(N)=O)NC(=O)[C@H](CC(C)C)NC(=O)[C@H](Cc5c[nH]cn5)NC(=O)[C@H](CC(C)C)NC3=O)C(=O)CCSC[C@H](NC(=O)[C@H](CCCCN)NC(=O)[C@H](CC(=O)O)NC(=O)[C@H](CO)NC(C)=O)C(=O)N[C@@H](CO)C(=O)N[C@@H](C)C(=O)NCC(=O)N[C@@H](Cc3c[nH]c5ccccc35)C(=O)N[C@@H](CC(C)C)C(=O)N[C@@H]([C@@H](C)O)C(=O)N[C@@H](CCSC)C(=O)N4)nn1)C(=O)N1CCC[C@H]1C(=O)N[C@@H](Cc1ccc(O)cc1)C(=O)N2 [BCY11018] | 7 fold |  |  |
| CCCC[C@@H]1NC(=O)[C@H](Cc2ccc(O)cc2)NC(=O)[C@@H]2CCCN2C(=O)[C@H](CC(=O)O)NC(=O)[C@H](C)NC(=O)[C@H](Cc2ccccc2)NC(=O)[C@@H]2CSCCC(=O)N3CN(CN(C3)C(=O)CCSC[C@@H](C(=O)N[C@@H](CNC(=O)CCOCCOCCOCCOCCOCCOCCOCCOCCOCCOCCOCCOCCn3cc(CCC(=O)NCCCC[C@@H]4NC(=O)[C@H](CCC(N)=O)NC(=O)[C@@H]5CSCCC(=O)N6CN(CN(C6)C(=O)CCSC[C@@H](C(=O)N6CCC[C@H]6C(=O)N[C@@H](CO)C(=O)N[C@@H](Cc6c[nH]cn6)C(N)=O)NC(=O)[C@H](CC(C)C)NC(=O)[C@H](Cc6c[nH]cn6)NC(=O)[C@H](CC(C)C)NC4=O)C(=O)CCSC[C@H](NC(=O)[C@H](CCCCN)NC(=O)[C@H](CC(=O)O)NC(=O)[C@H](CO)NC(C)=O)C(=O)N[C@@H](CO)C(=O)N[C@@H](C)C(=O)NCC(=O)N[C@@H](Cc4c[nH]c6ccccc46)C(=O)N[C@@H](CC(C)C)C(=O)N[C@@H]([C@@H](C)O)C(=O)N[C@@H](CCSC)C(=O)N5)nn3)C(N)=O)NC1=O)C(=O)CCSC[C@H](NC(C)=O)C(=O)N[C@@H](CC(C)(C)C)C(=O)N1CCC[C@H]1C(=O)N[C@@H](CCC(=O)O)C(=O)N[C@H](C)C(=O)N1CCC[C@H]1C(=O)N[C@@H](Cc1ccc(O)cc1)C(=O)N2 [BCY11019] |  | 6 |  |
| CCCC[C@@H]1NC(=O)[C@H](Cc2ccc(O)cc2)NC(=O)[C@@H]2CCCN2C(=O)[C@H](CC(=O)O)NC(=O)[C@H](C)NC(=O)[C@H](Cc2ccccc2)NC(=O)[C@@H]2CSCCC(=O)N3CN(CN(C3)C(=O)CCSC[C@@H](C(=O)N[C@@H](C)C(N)=O)NC1=O)C(=O)CCSC[C@H](NC(C)=O)C(=O)N[C@@H](CC(C)(C)C)C(=O)N1CCC[C@H]1C(=O)N[C@@H](CCCCNC(=O)Cn1cc(CCC(=O)NCCCC[C@@H]3NC(=O)[C@H](CCC(N)=O)NC(=O)[C@@H]4CSCCC(=O)N5CN(CN(C5)C(=O)CCSC[C@@H](C(=O)N5CCC[C@H]5C(=O)N[C@@H](CO)C(=O)N[C@@H](Cc5c[nH]cn5)C(N)=O)NC(=O)[C@H](CC(C)C)NC(=O)[C@H](Cc5c[nH]cn5)NC(=O)[C@H](CC(C)C)NC3=O)C(=O)CCSC[C@H](NC(=O)[C@H](CCCCN)NC(=O)[C@H](CC(=O)O)NC(=O)[C@H](CO)NC(C)=O)C(=O)N[C@@H](CO)C(=O)N[C@@H](C)C(=O)NCC(=O)N[C@@H](Cc3c[nH]c5ccccc35)C(=O)N[C@@H](CC(C)C)C(=O)N[C@@H]([C@@H](C)O)C(=O)N[C@@H](CCSC)C(=O)N4)nn1)C(=O)N[C@H](C)C(=O)N1CCC[C@H]1C(=O)N[C@@H](Cc1ccc(O)cc1)C(=O)N2 [BCY11376] | 9 fold |  |  |
| CCCC[C@@H]1NC(=O)[C@H](Cc2ccc(O)cc2)NC(=O)[C@@H]2CCCN2C(=O)[C@H](CC(=O)O)NC(=O)[C@H](C)NC(=O)[C@H](Cc2ccccc2)NC(=O)[C@@H]2CSCCC(=O)N3CN(CN(C3)C(=O)CCSC[C@@H](C(=O)N[C@@H](C)C(N)=O)NC1=O)C(=O)CCSC[C@H](NC(C)=O)C(=O)N[C@@H](CC(C)(C)C)C(=O)N1CCC[C@H]1C(=O)N[C@@H](CCC(=O)O)C(=O)N[C@H](CCCCNC(=O)Cn1cc(CCC(=O)NCCCC[C@@H]3NC(=O)[C@H](CCC(N)=O)NC(=O)[C@@H]4CSCCC(=O)N5CN(CN(C5)C(=O)CCSC[C@@H](C(=O)N5CCC[C@H]5C(=O)N[C@@H](CO)C(=O)N[C@@H](Cc5c[nH]cn5)C(N)=O)NC(=O)[C@H](CC(C)C)NC(=O)[C@H](Cc5c[nH]cn5)NC(=O)[C@H](CC(C)C)NC3=O)C(=O)CCSC[C@H](NC(=O)[C@H](CCCCN)NC(=O)[C@H](CC(=O)O)NC(=O)[C@H](CO)NC(C)=O)C(=O)N[C@@H](CO)C(=O)N[C@@H](C)C(=O)NCC(=O)N[C@@H](Cc3c[nH]c5ccccc35)C(=O)N[C@@H](CC(C)C)C(=O)N[C@@H]([C@@H](C)O)C(=O)N[C@@H](CCSC)C(=O)N4)nn1)C(=O)N1CCC[C@H]1C(=O)N[C@@H](Cc1ccc(O)cc1)C(=O)N2 [BCY11377] | 6 fold |  |  |
| CCCC[C@@H]1NC(=O)[C@H](Cc2ccc(O)cc2)NC(=O)[C@@H]2CCCN2C(=O)[C@H](CC(=O)O)NC(=O)[C@H](C)NC(=O)[C@H](Cc2ccccc2)NC(=O)[C@@H]2CSCCC(=O)N3CN(CN(C3)C(=O)CCSC[C@@H](C(=O)N[C@@H](CNC(=O)Cn3cc(CCC(=O)NCCCC[C@@H]4NC(=O)[C@H](CCC(N)=O)NC(=O)[C@@H]5CSCCC(=O)N6CN(CN(C6)C(=O)CCSC[C@@H](C(=O)N6CCC[C@H]6C(=O)N[C@@H](CO)C(=O)N[C@@H](Cc6c[nH]cn6)C(N)=O)NC(=O)[C@H](CC(C)C)NC(=O)[C@H](Cc6c[nH]cn6)NC(=O)[C@H](CC(C)C)NC4=O)C(=O)CCSC[C@H](NC(=O)[C@H](CCCCN)NC(=O)[C@H](CC(=O)O)NC(=O)[C@H](CO)NC(C)=O)C(=O)N[C@@H](CO)C(=O)N[C@@H](C)C(=O)NCC(=O)N[C@@H](Cc4c[nH]c6ccccc46)C(=O)N[C@@H](CC(C)C)C(=O)N[C@@H]([C@@H](C)O)C(=O)N[C@@H](CCSC)C(=O)N5)nn3)C(N)=O)NC1=O)C(=O)CCSC[C@H](NC(C)=O)C(=O)N[C@@H](CC(C)(C)C)C(=O)N1CCC[C@H]1C(=O)N[C@@H](CCC(=O)O)C(=O)N[C@H](C)C(=O)N1CCC[C@H]1C(=O)N[C@@H](Cc1ccc(O)cc1)C(=O)N2 [BCY11378] | 3 fold |  | 7.10 |
| CCCC[C@@H]1NC(=O)[C@H](Cc2ccc(O)cc2)NC(=O)[C@@H]2CCCN2C(=O)[C@H](CC(=O)O)NC(=O)[C@H](C)NC(=O)[C@H](Cc2ccccc2)NC(=O)[C@@H]2CSCCC(=O)N3CN(CN(C3)C(=O)CCSC[C@@H](C(=O)N[C@@H](C)C(N)=O)NC1=O)C(=O)CCSC[C@H](NC(C)=O)C(=O)N[C@@H](CC(C)(C)C)C(=O)N1CCC[C@H]1C(=O)N[C@@H](CCCCNC(=O)CCOCCOCCOCCOCCOCCn1cc(CCC(=O)NCCCC[C@@H]3NC(=O)[C@H](CCC(N)=O)NC(=O)[C@@H]4CSCCC(=O)N5CN(CN(C5)C(=O)CCSC[C@@H](C(=O)N5CCC[C@H]5C(=O)N[C@@H](CO)C(=O)N[C@@H](Cc5c[nH]cn5)C(N)=O)NC(=O)[C@H](CC(C)C)NC(=O)[C@H](Cc5c[nH]cn5)NC(=O)[C@H](CC(C)C)NC3=O)C(=O)CCSC[C@H](NC(=O)[C@H](CCCCN)NC(=O)[C@H](CC(=O)O)NC(=O)[C@H](CO)NC(C)=O)C(=O)N[C@@H](CO)C(=O)N[C@@H](C)C(=O)NCC(=O)N[C@@H](Cc3c[nH]c5ccccc35)C(=O)N[C@@H](CC(C)C)C(=O)N[C@@H]([C@@H](C)O)C(=O)N[C@@H](CCSC)C(=O)N4)nn1)C(=O)N[C@H](C)C(=O)N1CCC[C@H]1C(=O)N[C@@H](Cc1ccc(O)cc1)C(=O)N2 [BCY11379] |  | 6 |  |
